Laboratory results: US12653799B2, “Compositions and methods for treating Alzheimer's disease” (ELEANORE BENNETT CHARITABLE TRUST #2, priority 2021, dated 2026)

Columns and labels:
C2C12 myotubes = assay: Cell viability (cytoprotection) in C2C12 myotubes
Protocol: Cell viability as measured by MTT assay.
Mouse C2C12 cells (ATCC) were grown in Dulbecco's modified Eagle medium (DMEM), 20% fetal bovine serum (FBS) (Invitrogen), and maintained for passage below 60% confluence. Cultures at or above 90% confluence were then differentiated in DMEM, 2% adult horse serum (DM) for 3 days before use.

[1] = test system: Akt Ser473 and mTOR Ser2448 phosphorylation in rat primary cortical neurons; assay: Over-activation test in insulin-stimulated primary cortical neurons; conditions: PS48 0.01 to 100 μM for 2 hrs or 24 hrs; 20 nM insulin
Source text: Western blots shown above and corresponding quantified results shown below. n=2.

[2] = test system: CREB phosphorylation (pS133) in SH-SY5Y cells; assay: Endogenous p-CREB levels in Aβ42-expressing SH-SY5Y cells; conditions: PS48 50 nM; insulin 250 ng/ml 30 min
Protocol: Whole cell extracts were fractionated by Western and probed with monoclonal anti-pCREB pS133. […] All cells were stimulated with insulin 250 ng/ml for 30 min before harvest.

C57BL/6 mice = assay: Safety of intravenous PS48 over 2 weeks; assay type: in vivo, mouse
Protocol: Finally, a series of in vivo experiments was performed to assess safety of treatment with PS48. […] Similarly, when PS48 was given by oral gavage over 2 weeks, there were no signs of toxicity by gross observation, organ specific necropsy, or weight.
For intravenous PS48, adult male C57BL/6 mice (Charles River, n=6 per group) were fed ad libitum and dosed with PS48 or vehicle in an escalating schedule from 3-20 mg/kg IV daily; 3-10 mg/kg days 1-6, and 20 mg/kg days 7-13. Tail vein blood sugars were obtained 30, 60, and 120 minutes after every third dose.
Liver transaminases ALT and AST, as well as muscle creatine kinase (CK), were also measured to assess possible liver toxicity and possible general tissue toxicity, respectively. A change in ALT, albeit statistically significant, was very small.

APP/PS-1 transgenic mice = assay: Oral glucose tolerance test in APP/PS-1 transgenic mice; assay type: in vivo, mouse; conditions: TG mice on standard diet, approximately 15.5 months; p<0.05
Protocol: At the end of phase 2 (active drug) trial, OGTT was administered to the standard diet animals. Animals were approximately 15.5 months at the time of the assay.

[3] = test system: LTP in rat prefrontal cortical slices; assay: Long term potentiation (LTP) in acute prefrontal cortical slices perfused with Aβ42 oligomers; assay type: cell-based; conditions: PS48 10 μM
Protocol: FIG. 3A. […] LTP was measured as % baseline excitatory postsynaptic potential (EPSP) amplitudes. […] Washout restored LTP (4).
Minor modifications were made to previous published procedures (Marshall et al., 2017; Molina-Luna et al., 2009). Deeply anesthetized rats (pentobarbital, 50 mg/kg) were decapitated, their brains quickly removed and immersed in cold (5-7° C.), oxygenated (95% O2/5% CO2) artificial cerebrospinal fluid (ACSF) containing: 126 mM NaCl, 3 mM KCl, 1.25 mM NaH2PO4, 1 mM MgSO4, 2 mM CaCl2, 26 mM NaHCO3, 10 mM dextrose. […] Control treatment was DMSO in ACSF (artificial cerebrospinal fluid, 20 μM bicuculline). Extracellular postsynaptic field potentials were recorded using an AxoClamp2B amplifier (Axon instruments) and EX1 differential amplifier (Dagan), and digitized at 10 kHz. Data was acquired using Igor Pro (Wave Metrics) and Neuromatic (neuromatic.thinkrandom.com). The stimulus intensity eliciting 50% of the maximum amplitude (˜32 μA) was used for all measurements before and after LTP induction. Baseline amplitudes were recorded for 20-30 minutes using single field stimuli applied every 30 sec to layer IV-V using concentric bipolar electrodes. Following a stable baseline period, LTP was induced by two sets of high-frequency stimulation (HFS) at 100 Hz, 60 μA (twice stimulus intensity), for 1 sec, 20 sec apart. Extracellular postsynaptic field potentials were measured from layer II-III using glass micropipettes filled with 0.9% NaCl. The amplitude rather than the slope of evoked FPs was used as a measure of the population excitatory synaptic response because in the neocortex the initial slope was contaminated by antidromic stimulation. LTP values were expressed as percentage of mean baseline EPSP±SEM. Paired two-tailed t-tests were used for statistical analysis.
LTP was measured as % baseline excitatory postsynaptic potential (EPSP) amplitudes. […] Washout restored LTP.

SH-SY5Y cells = assay: Cell viability, MTT assay, Aβ42-expressing SH-SY5Y cells
Protocol: FIG. 2A. Cell viability as measured by MTT assay.
SH-SY5Y cells were washed twice in warm Dulbecco's phosphate-buffered saline (DPBS) and incubated in 1 ml DMEM containing 0.5 mg (3-[4,5-dimethylthiazol-2-yl]-2,5-diphenyltetrazolium bromide) (MTT or WST; Molecular Probes, Eugene, OR) for 2-3 h at 37° C. and 5% CO2. The medium was aspirated and the cells were washed twice with pre-warmed DPBS. The formazan salts were dissolved in 1 ml pure ethanol before use. Cells were homogenized by repetitive pipetting and centrifuged for 5 min at 4500 rpm, and the supernatant collected. Absorbance was read against an ethanol blank at 590 nm.

[4] = test system: phospho-GSK (GSK3α/β) in SH-SY5Y cells; assay: Cellular phospho-GSK levels in SH-SY5Y cells; assay type: cell-based; conditions: PS48 1 μM 0 to 2 hours; 0-100 μM 20 min
Protocol: FIG. 8B. PS48 over time (1 μM; 0 to 2 hours) and concentration (20 min; 0-100 μM) was applied to SH-SY5Y cells. No changes in cellular phospho-GSK levels were observed.

transgenic mice = assay: Contextual and cued fear conditioning; assay type: in vivo, mouse; conditions: 16-month-old Tg mice; no significant changes
Protocol: Next, a series of experiments was performed to assess contextual and cued fear conditioning. 16-month-old mice WT, TG w/vehicle, and TG w/PS48 were first habituated to establish activity levels (300 sec), then presented 3 shock-tone pairings, followed by probes of contextual and cued fear memory. Prior to conditioning to the tone and foot shock, mice in all groups experienced very low levels of freezing (Baseline Freezing Day 1) (FIG. 14A) and the expected freezing to the shock (FIG. 14B).
After the conditioning procedure, when mice were placed back in the same context but without tone or shock (Day 2), freezing was measured over 8 minutes, the last 4 minutes were quantified.
On Day 3 the context was changed for 2 minutes (12 bins) and mice were exposed to a continuous tone (cue) used during conditioning for 8 minutes. […] Freezing % was quantified as the number of 10-sec epochs in which there was no beam break over the total number of epochs in the 4-minute period (24). […] Sec FIG. 14D.

O=C(O)/C=C(/CCc1ccc(Cl)cc1)c1ccccc1 [PS48, (Z)-5-(4-chlorophenyl)-3-phenylpent-2-enoic acid]
cytoprotection (C2C12 myotubes): same cytoprotection | Akt Ser473 and mTOR Ser2448 phosphorylation [1]: did not over-activate Akt Ser473 or affect mTOR Ser2448 phosphorylation | p-CREB (pS133) levels reduced by Aβ42 expression [2]: mitigated the Aβ42 effect | behavioral changes (C57BL/6 mice; 3-20 mg/kg IV daily, 2-week trial): No behavioral changes | change in muscle creatine kinase (CK) (C57BL/6 mice; IV daily for 14 days): no significant change | change in ALT (C57BL/6 mice; IV daily for 14 days, statistically significant): very small | mean body weight or mean blood sugars (C57BL/6 mice; IV, 3-20 mg/kg daily): no significant change | gross necropsy (C57BL/6 mice; IV, after 14 days): no abnormalities | response to glucose challenge (OGTT) (APP/PS-1 transgenic mice): helped to normalize the glucose response | LTP (% baseline EPSP amplitude) inhibited by Aβ42 oligomers ([3]; Aβ42 ADDLs 0.5 μM, at the 1-hour mark after Aβ42 application): significantly improved LTP | LTP (% baseline EPSP amplitude) inhibited by Aβ42 oligomers ([3]; by 3 hours): the beneficial effect had disappeared | cell viability, comparison with PPAR agonist (FIG. 2B) (SH-SY5Y cells; PS48 10 μM, pioglitazone 5 μM): compared favorably | cell viability (MTT) of amyloid-bearing cells (SH-SY5Y cells; pretreatment before doxycycline, PS48 10 μM or insulin 100 nM, harvested at 48 hrs): reverted cells to basal condition or better | resting cellular pGSK levels [4]: no effect | cue fear conditioning, freezing (transgenic mice): a trend in cue conditioning paradigm favored PS48 treatment
